Experimental data from ChEMBL document CHEMBL1150106, “Carvone and perillaldehyde interfere with the serum-induced formation of filamentous structures in Candida albicans at substantially lower concentrations than those causing significant inhibition of growth” (J Nat Prod, 2002).
Active and inactive are the calls of the source. The rule behind the calls is not given here.

Assays:
Type in all cases: functional, organism-based
Candida albicans [1] = experiment: Anticandidal activity against Candida albicans H317 assessed as inhibition of transformation of organism from cellular yeast to filamentous form at 125 uM preincubated for 2 hrs before addition of fetal bovine serum measured after 22 hrs by phase contrast microscopy
Candida albicans [2] = experiment: Growth inhibition of cellular yeast form of Candida albicans H317 at 5 mM after 2 hrs
Candida albicans [3] = experiment: Anticandidal activity against Candida albicans H317 assessed as inhibition of transformation of organism from cellular yeast to filamentous form at 250 uM preincubated for 2 hrs before addition of fetal bovine serum measured after 22 hrs by phase contrast microscopy

C=C(C)[C@@H]1CC=C(C=O)CC1
Activity (Candida albicans [1]): Active | Activity (Candida albicans [2]): Active

C=C(C)[C@H]1CC=C(C)C(=O)C1
Activity (Candida albicans [3]): Active | Activity (Candida albicans [2]): Active
